# Experimental data taken from patent publication US4119722A, “Method for control of fungi using 4-halo-5-aryl-1,2,3,-dithiazoles” (Chevron Research Company, priority 1977, dated 1978).
# Experiments:
# Aspergillus niger = experiment: Mycelia Inhibition; format: cell-based; settings: 25° C., 24 hours
# Experimental: (§1) The compounds of the present invention were evaluated for fungicidal effectiveness by means of a mycelial inhibition test. This test is designed to measure the fungitoxic acitvity of fungicidal chemicals in terms of their degree of inhibition of mycelium growth. Each compound to be tested was dissolved in acetone to 500 ppm concentration. Paper strips were innoculated with the particular mycelium growth by covering the paper with a potato dextrose broth culture of mycelial suspension. The innoculated papers were then placed on potato dextrose agar plates and sprayed by means of a micro sprayer with the fungicidal solution. The treated paper strips were incubated at 25° C. and data is taken after 24 hours. Fungicidal activities are measured by a zone of inhibited mycelial growth from the center of the paper strip. The effectiveness of the compounds tested for fungicidal activity is reported in Table VI in terms of the microgram/cm^2 for 99% control of the fungus.
# Botrytis cinerea = experiment: Mycelia Inhibition; format: cell-based; settings: 25° C., 24 hours
# Experimental: as §1
# Fusarium moniloforma = experiment: Mycelia Inhibition; format: cell-based; settings: 25° C., 24 hours
# Experimental: as §1
# Rhizoctonia solani = experiment: Mycelia Inhibition; format: cell-based; settings: 25° C., 24 hours
# Experimental: as §1
# [1] = test system: Crabgrass (Digitaria sanguinalis); experiment: Post-emergent herbicidal test; format: in vivo; settings: post-emergence, 504 h, 33 mcg/cm^2, 3 weeks, scale 0 (no phytotoxicity) to 100 (complete kill), read-out: Herbicidal Effectiveness (C)
# Experimental: (§2) Post-emergent herbicidal tests with representative compounds of this invention were made using the following method.
# (§3) An acetone solution of the test compound was prepared by mixing 750 mg of the compound, 220 mg of a nonionic surfactant and 25 ml of acetone. This solution was added to approximately 125 ml of water containing 156 mg of surfactant.
# (§4) This test solution was uniformly sprayed on 2 similar pots of 24-day-old plants (approximately 15 to 25 plants per pot) at a dose of 33 mcg/cm^2. After the plants had dried, they were placed in a greenhouse and then watered intermittently at their bases, as needed. The plants were observed periodically for phytotoxic effects and physiological and morphological responses to the treatment. After 3 weeks, the herbicidal effectiveness of the compound was rated based on these observations. A 0-to-100 scale was used, 0 representing no phytotoxicity and 100 representing complete kill.
# [2] = test system: Lambsquarter (Chenopodium album); experiment: Post-emergent herbicidal test; format: in vivo; settings: post-emergence, 504 h, 33 mcg/cm^2, 3 weeks, scale 0 (no phytotoxicity) to 100 (complete kill), read-out: Herbicidal Effectiveness (P)
# Experimental: as §2, §3, §4
# [3] = test system: Mustard (Brassica arvensis); experiment: Post-emergent herbicidal test; format: in vivo; settings: post-emergence, 504 h, 33 mcg/cm^2, 3 weeks, scale 0 (no phytotoxicity) to 100 (complete kill), read-out: Herbicidal Effectiveness (L)
# Experimental: as §2, §3, §4
# [4] = test system: Pigweed (Amaranthus retroflexus); experiment: Post-emergent herbicidal test; format: in vivo; settings: post-emergence, 504 h, 33 mcg/cm^2, 3 weeks, scale 0 (no phytotoxicity) to 100 (complete kill), read-out: Herbicidal Effectiveness
# Experimental: as §2, §3, §4
# [5] = test system: Watergrass (Echinochloa Crusgalli); experiment: Post-emergent herbicidal test; format: in vivo; settings: Echinochloa crus-galli, post-emergence, 504 h, 33 mcg/cm^2, 3 weeks, scale 0 (no phytotoxicity) to 100 (complete kill), read-out: Herbicidal Effectiveness (W)
# Experimental: as §2, §3, §4
# Wild Oats (Avena fatua) = experiment: Post-emergent herbicidal test; format: in vivo; settings: post-emergence, 504 h, 33 mcg/cm^2, 3 weeks, scale 0 (no phytotoxicity) to 100 (complete kill), read-out: Herbicidal Effectiveness (O)
# Experimental: as §2, §3, §4
# [6] = test system: two spotted-mites (Tetramuchus urticae); experiment: Mite control test, adult mites; format: in vivo; settings: 40-ppm leaf dip, adult mortality one day after treatment; 1440 min
# Experimental: (§5) Compounds of the invention were tested for the control mites and mite eggs by the following procedure. Pinto bean leaves were invested with two spotted-mites (Tetramuchus urticae). The mites were then allowed to lay eggs on the leaves. After 48 hours, the leaves were dipped into a water/acetone solution containing a small amount of a non-ionic surfactant and 40-ppm of the test compound. The treated leaves were then maintained at 85° F. One day after treatment, the mortality of adult mites was determined, and 7 days after treatment, the egg mortality (non-hatching eggs) was determined.
# [7] = test system: mite eggs (Tetramuchus urticae); experiment: Mite control test, mite eggs; format: in vivo; settings: 40-ppm leaf dip, egg mortality (non-hatching eggs) 7 days after treatment
# Experimental: as §5
# Phytophthora infestans = experiment: whole plant or invertebrate; format: in vivo; settings: in Solanum lycopersicum, 168 h, read-out: Tomato Late Blight, % Control
# Septoria apii = format: in vivo; settings: sprayed celery plants; concentration not given
Compound,"Mycelia Inhibition, for 99% control (A) (Aspergillus niger)","Mycelia Inhibition, for 99% control (B) (Botrytis cinerea)","Mycelia Inhibition, for 99% control (F) (Fusarium moniloforma)","Mycelia Inhibition, for 99% control (R) (Rhizoctonia solani)",pest or weed control at 33 µg/cm2 [1],pest or weed control at 33 µg/cm2 [2],pest or weed control at 33 µg/cm2 [3],pest or weed control at 33 µg/cm2 [4],pest or weed control at 33 µg/cm2 [5],pest or weed control at 33 µg/cm2 (Wild Oats (Avena fatua)),"Mite Control, % [6]","Mite Eggs Control, % [7]",pest or weed control at 250 µg/mL (Phytophthora infestans),"Celery Late Blight, % Control (Septoria apii)"
"Clc1nssc1=Nc1ccccc1 [Compound 1, 4-chloro-5-phenylimino-1,2,3-dithiazole]",> 1.7 micrograms/cm^2,0.33 micrograms/cm^2,> 1.7 micrograms/cm^2,> 1.7 micrograms/cm^2,20%,70%,80%,85%,10%,0%,–,–,–,–
Clc1ccc(N=c2ssnc2Cl)cc1 [Compound 2],0.85 micrograms/cm^2,–,1.5 micrograms/cm^2,0.33 micrograms/cm^2,20%,95%,95%,100%,85%,15%,–,–,–,–
"Clc1ccc(N=c2ssnc2Cl)cc1Cl [Compound 5, 4-chloro-5-(3,4-dichlorophenylimino)-1,2,3-dithiazole]",1.1 micrograms/cm^2,–,> 1.7 micrograms/cm^2,> 1.7 micrograms/cm^2,30%,100%,100%,100%,55%,35%,99%,100%,–,–
Cc1ccccc1N=c1ssnc1Cl [Compound 7],0.98 micrograms/cm^2,> 1.7 micrograms/cm^2,> 1.7 micrograms/cm^2,> 1.7 micrograms/cm^2,0%,70%,60%,70%,0%,0%,–,–,–,–
O=[N+]([O-])c1cccc(N=c2ssnc2Cl)c1 [Compound 8],> 1.7 micrograms/cm^2,1.3 micrograms/cm^2,> 1.7 micrograms/cm^2,> 1.7 micrograms/cm^2,0%,40%,35%,30%,0%,0%,–,–,44%,–
Cc1cccc(C)c1N=c1ssnc1Cl [Compound 10],–,–,–,–,0%,30%,75%,60%,0%,0%,–,–,–,–
Cc1cc(C)c(N=c2ssnc2Cl)c(C)c1 [Compound 11],> 1.7 micrograms/cm^2,> 1.7 micrograms/cm^2,> 1.7 micrograms/cm^2,0.98 micrograms/cm^2,–,–,–,–,–,–,–,–,–,–
Clc1nssc1=Nc1cccc(Br)c1 [Compound 12],> 1.7 micrograms/cm^2,> 1.7 micrograms/cm^2,> 1.7 micrograms/cm^2,1.4 micrograms/cm^2,30%,55%,100%,85%,30%,30%,–,78%,–,–
Clc1ccccc1N=c1ssnc1Cl [Compound 14],–,–,–,–,30%,100%,100%,93%,40%,0%,70%,0%,–,–
Clc1cccc(N=c2ssnc2Cl)c1 [Compound 15],> 1.7 micrograms/cm^2,> 1.7 micrograms/cm^2,> 1.7 micrograms/cm^2,0.98 micrograms/cm^2,10%,80%,98%,85%,45%,30%,–,–,68%,–
Clc1nssc1=Nc1ccc2ccccc2c1 [Compound 16],–,–,–,–,20%,70%,100%,85%,90%,0%,–,–,73%,–
O=[N+]([O-])c1ccc(Oc2cccc(N=c3ssnc3Cl)c2)c(C(F)(F)F)c1 [Compound 17],–,–,–,–,–,–,–,–,–,–,–,–,62%,56%
O=[N+]([O-])c1ccc(Oc2ccc(N=c3ssnc3Cl)cc2)cc1 [Compound 19],> 1.7 micrograms/cm^2,–,> 1.7 micrograms/cm^2,0.88 micrograms/cm^2,–,–,–,–,–,–,0%,78%,51%,62%
O=[N+]([O-])c1ccc(Oc2ccccc2N=c2ssnc2Cl)cc1 [Compound 20],> 1.7 micrograms/cm^2,–,> 1.7 micrograms/cm^2,1.3 micrograms/cm^2,–,–,–,–,–,–,–,–,80%,62%
Fc1ccc(N=c2ssnc2Cl)cc1 [Compound 24],–,–,–,–,60%,70%,100%,70%,60%,40%,–,–,–,–
Cc1ccc(N=c2ssnc2Cl)cc1 [Compound 25],1.5 micrograms/cm^2,0.76 micrograms/cm^2,> 1.7 micrograms/cm^2,0.92 micrograms/cm^2,35%,45%,100%,90%,55%,30%,–,–,–,–
Oc1c(Cl)cc(N=c2ssnc2Cl)cc1Cl [Compound 26],> 1.7 micrograms/cm^2,> 1.7 micrograms/cm^2,> 1.7 micrograms/cm^2,1.3 micrograms/cm^2,–,–,–,–,–,–,–,–,–,–
N#Cc1ccccc1N=c1ssnc1Cl [Compound 29],–,–,–,–,–,–,–,–,–,–,–,–,–,44%
N#Cc1cc(C(F)(F)F)ccc1Oc1cccc(N=c2ssnc2Cl)c1 [Compound 30],–,–,–,–,–,–,–,–,–,–,–,–,–,80%
